Measured values published in patent publication US11730830B2, “Topical application of nerve labeling dyes for image-guided surgery” (General Electric Company, priority 2016, dated 2023).

What was measured:
[1] = tested on: rat nerve tissue sections; assay: Ex vivo labeling of cryosectioned nerve tissue; details: 10 uM, 1 h, buffer with 10% Cremophor EL and 65% rat serum in PBS
From the text: Various nerves were harvested from male Sprague Dawley rats. Tissue was fixed by perfusion and post-fixed with 10% neutral buffered formalin. Following post-fixation, tissue was cryoprotected in a 20% sucrose solution made in phosphate buffered saline (PBS). Nerves were then flash-frozen using methanol and dry ice in OCT media. In some cases, polyvinylidene fluoride membranes were used to help keep the nerves vertical in the OCT media. 5-10 micron section were sliced on a Leica microtome and stored in a −80° C. freezer prior to staining with agents (1)-(5).
For ex vivo staining of nerve sections, the slides were rinsed in PBS (3×5 min). Contrast agent (with a final concentration of 10 uM) was added onto the tissue in a buffer containing 10% Cremophor EL and 65% rat serum in PBS. The slides were incubated for 1 h in a dark, humid chamber after which they were washed with PBS (3×5 min), cover-slipped, and imaged using a custom filter cube (excitation filter: 387 nm with 11 nm band pass, 409 nm dichroic mirror; emission filter: 409 nm long pass). A buffer only control was also performed using exactly the same procedure to determine autofluorescence under the same settings.
Molecules that are related to the “push-pull” core structure of this class of compound would also benefit from this new method of application. The following is an example of ex vivo labeling of resected nerve tissue. In here, compounds used to stain cryo sectioned nerve tissue from rats.

nerves = assay: Intraoperative topical application at the surgical site, fluorescence nerve imaging in murine model; type: in vivo, mouse
Procedure: (§1) Commercial small animal system: A fluorescence stereomicroscope (SteREO Lumar V12, Carl Zeiss Inc., Thornwood, N.Y.) equipped with a multispectral imaging camera (Nuance, CRI, Woburn, Mass.) was used with an exposure time of 1-5 s. Excitation of the flurophores was achieved using a filter centered at 406 nm with a 15 nm bandwidth. The fluorescence emission spectrum was recorded at wavelengths ranging from 420 to 720 nm at 10-nm increments using the attached multispectral camera. Alternatively, we had also used an emission filter with 550 long pass filter (in the absence of multispectral camera).
(§2) The laparoscope module comprises a standard 10 mm zero degree surgical laparoscope with 70 degree field of view, a 4 mm diameter, 1800 mm long laparoscope light guide, 35 mm video coupler, a compact 90 gram, 659×494 pixel GigE color camera (acA640-90gc Basler, Ahrensburg, Germany), and a 405 nm blocking filter (BLP01-405R Semrock, Rochester, N.Y.), which has >97% transmission from 420 to 800 nm. The ⅓″ format sensor provides high sensitivity with 7.4 μm pixel size and adequate field of view (40 degrees out of 70 degrees passed by the laparoscope). The video coupler interfaces with the eyepiece of the laparoscope providing an interchangeable set up for different types of laparoscopes. The 405 nm filter is secured directly in front of the image sensor with a c-mount retaining ring. The camera threads onto the video coupler directly.
Illumination for white light and fluorescence imaging is coupled into a single light guide using conventional optics. The light coupling module consists of two 32 mm aspheric lenses to collimate a white light LED and a 500 mW, 405 nm blue laser diode coupled into a multimode fiber with 400 μm diameter (Shanghai Laser & Optics Century Co., Ltd., China). The LED spectrum is filtered with a 450 nm long pass filter (NT49-819, Edmund Optics, Barrington, N.J.) to minimize excitation of the fluorescent agent, while maintaining the white light color spectrum. The LED and laser are combined with a 425 nm dichroic mirror (DMLP425R, Thorlabs). The combined illumination is coupled into the light guide with a third 32 mm aspheric lens (ACL4532, Thorlabs). The maximum irradiance from the LED and 405 nm laser are 2.0 mW/cm2 and 7.3 mW/cm2, respectively, at 25 mm from the tip of the laparoscope. Formulation, dosing, and kinetics for in vivo imaging following systemic IV injection of contrast agent in animal model:
Several different formulations were tested, including but not limited to: • Formulation 1: 10% PEG-300; 20% PG; 0.4% Carbopol; 69.6% water; • Formulation 2: 10% DMSO; 20% PEG-800; 20% PG; 0.1% Polysorbate-80; 49.9% Water; • Formulation 3: 30% PEG-300; 5% DMSO; 10% PVA; 55% water; • Formulation 4: 30% PEG-300; 10% PVA; 60% water; • Formulation 5: 30% PEG-300; 5% DMSO; 30% Pluronic F-68; 0.1% Polysorbate-80; 34.9% water; • Formulation 6: 20% PEG-300; 10% PG; 5% PVP; 5% Laurocapram; 60% water; • Formulation 7: 20% PEG-300; 10% PG; 5% PVP; 5% Laurocapram; 5% EtOH; 5% oleic acid; 10% Tween-80; 40% water; where: PVA=polyvinyl alcohol; PVP=polyvinyl pyrrolidone; and PEG=polyethylene glycol. […]
Topically administered nerve labeling dyes were also able to label nerves in a living animal. The fluorescence from nerves can be detected within minutes after intraoperative topical application. Representative white light and fluorescence images of topically administered FORMULA I(f) in a mouse are shown in FIG. 2A (white light) and FIG. 2B (fluorescence). […]

[2] = Solubility check of the IV formulation; type: physicochemical; details: propylene glycol, 2-HPβCD, water, pH 7.4; visual, centrifugation, buffer dissolution, dynamic light scattering
Procedure: (§3) For systemic administration by IV injection, the contrast agents were formulated using the following excipients: 5-15% propylene glycol (Fisher P355-1), 5-30% 2-hydroxypropyl-β-cyclodextrin (2-HPβCD, Sigma H5784) and 70-90% distilled/deionized water. In some cases, PEG-300 and DMSO were also added. The IV formulation was brought to a final pH of 7.4 using 1M of hydrochloric acid.
Specifically, IV formulation for FORMULA I(f) consisted of 80% distilled/deionized water, 10% 2-hydroxypropyl-β-cyclodextrin (2-HPβCD, Sigma H5784), and 10% propylene glycol (Fisher P355-1).

nerve = assay: Intraoperative topical application in porcine surgical model, real-time fluorescence imaging; type: in vivo; details: pig
From the text: as §2
Illumination for white light and fluorescence imaging is coupled into a single light guide using conventional optics. The light coupling module consists of two 32 mm aspheric lenses to collimate a white light LED and a 500 mW, 405 nm blue laser diode coupled into a multimode fiber with 400 μm diameter (Shanghai Laser & Optics Century Co., Ltd., China). The LED spectrum is filtered with a 450 nm long pass filter (NT49-819, Edmund Optics, Barrington, N.J.) to minimize excitation of the fluorescent agent, while maintaining the white light color spectrum. […]

sciatic nerve = assay: Kinetics of uptake and clearance after systemic IV injection, in vivo fluorescence imaging; parameters: species or system murine; details: IV injection 16.6 mg/kg
Procedure: as §1, §3
Specifically, IV formulation for FORMULA I(f) consisted of 80% distilled/deionized water, 10% 2-hydroxypropyl-β-cyclodextrin (2-HPβCD, Sigma H5784), and 10% propylene glycol (Fisher P355-1). […]
A dose of 16.6 mg/kg of FORMULA I(f) was used for measuring the nerve fluorescence at 0.5, 1, 2, 3 and 4 hours after IV injection. […]

COc1cc(/C=C/c2ccc(C#N)cc2)ccc1/C=C/c1ccc(N)cc1 [FORMULA I(d)]
fluorescent staining of nerve tissue sections [1]: most robust fluorescent staining
nerve labeling by topical application (nerves; mouse, small animal commercial instrument): fluorescence nerve labeling

COc1cc(/C=C/c2ccc(S(C)(=O)=O)cc2)ccc1/C=C/c1ccc(N)cc1 [FORMULA I(e)]
fluorescent staining of nerve tissue sections [1]: most robust fluorescent staining

COc1cc(/C=C/c2ccc(S(=O)(=O)N3CCN(CCO)CC3)cc2)ccc1/C=C/c1ccc(N)cc1 [FORMULA I(f)]
solubility in the IV formulation [2]: Complete solubility
fluorescent staining of nerve tissue sections [1]: most robust fluorescent staining
nerve visibility under fluorescence imaging versus white light (nerve; 0.3 milligrams in Formulation 6, retroperitoneal area, 3 minutes, saline irrigation): more pronounced under fluorescence imaging compared to white light imaging
nerve visibility under fluorescence guidance versus white light (nerve; 4 milligrams in Formulation 4, 5 minutes, warm saline irrigation): highly detectable under fluorescence guidance
best nerve-to-muscle ratio (sciatic nerve; 1 h post-injection, murine model): 3.7
time of maximum sciatic nerve and adipose tissue fluorescence (sciatic nerve; measured at 0.5, 1, 2, 3 and 4 hours): 1 h
topical dose that effectively visualizes fluorescent nerves (nerves; Formulation 6, incubated 3 minutes, irrigated with saline, mouse model): 0.01 mg
penetration into the nerve bundle, fluorescence microscopy of cryosectioned sciatic nerve (nerves; after topical application, irrigation and excision, 15 micron sections, murine model): donut-shaped myelin bundles are stained
fluorescence intensity from surrounding muscle tissue, topical versus systemic administration (nerves; topical about 0.1 milligrams in Formulation 4 versus IV about 16 mg/kg, multispectral imaging, murine model): lower across all the emission wavelengths
detection of very fine nerve fibers in a brachial plexus branch (nerves; topical in Formulation 4, 5 minutes, irrigated with sterile saline, dual-mode laparoscopic instrument, mouse): more readily detected under fluorescence guidance
